In general, inhibition refers to the change of the read-out against control, counted positive when it falls. A low value points to a response near the control. Usually IC50 stands for the midpoint of a concentration-inhibition curve.

The species named for one test is Homo sapiens. As to the kind of experiment: Percent of Tat-activation inhibited at 500 uM of the compound. Type of test: functional.
A short description of test [1]: Inhibitory activity of compound was tested against transcriptional activation by Tat protein in human cells. Type of test: functional, cell-based.

Where a SMILES comes first, the peptide text is derived from it. [ ]: non-standard residue; d: D form. A value given as a limit tells only on which side of the number the result lay.

For `NCCCC[C@@H]1NC(=O)[C@@H](N)CCCCNC(=O)CC[C@@H](C(=O)O)NC(=O)[C@H](CC(N)=O)NC(=O)[C@@H](CCCCN)NC1=O`, in the test filed under Homo sapiens, the inhibition is above 90%. This compound also registered an IC50 in test [1] of around 40 nM.
In test [1], `NCCCC[C@H](N)C(=O)N[C@H](CCCCN)C(=O)N[C@@H](CC(N)=O)C(=O)O` (H-Lys-[dK]-Asn-OH) registered an IC50 of around 50 nM.

For the origin of these results see ChEMBL document CHEMBL1133360, “Design, synthesis, and biological activity of a cyclic peptide: an inhibitor of HIV-1 tat-TAR interactions in human cells” (Bioorg Med Chem Lett, 2000).
